Tested on: Myo5 SH3 domain
Assay: SPOT analysis of cellulose-bound peptides (WISE), Myo5 SH3 domain (Dataset S4)
Type: binding, Saccharomyces cerevisiae
Details: for The normalized value in BLU units: Myo5 SH3 domain
[1] = SPOT analysis of membrane-synthesized peptides probed with Myo5 SH3 domain, normalized value
[2] = SPOT analysis of cellulose-bound 14-mer yeast proteome peptides, normalized value, mean where the peptide was synthesized more than once
[3] = SPOT analysis of cellulose-bound peptides probed with Myo5 SH3 domain, normalized value
[4] = SPOT analysis of membrane-bound peptides, normalized value (see methods)

SERRKALPKEPKKL
The normalized value in BLU units (SPOT analysis, Myo5 SH3) [1]: 200.0 BLU

VELHFPKPEDPACI
The normalized value in BLU units [2]: 14.9 BLU

GWVVYPPPPKPSYN
The normalized value in BLU units (SPOT analysis, Myo5 SH3) [3]: 452.7 BLU

LPEELMRPKVPELL
The normalized value in BLU units (SPOT analysis, Myo5 SH3) [3]: 145.4 BLU

EAYRLNYPELPRLT
The normalized value in BLU units [2]: 125.1 BLU

HAEAFEDPSIPRIS
The normalized value in BLU units [2]: 324.6 BLU

TTNSRLCPSSPSSS
The normalized value in BLU units (SPOT analysis, Myo5 SH3) [1]: 160.8 BLU

VAKSYGFPVPPKVN
The normalized value in BLU units [2]: 258.9 BLU

KIVRRDYPSTPVIV
The normalized value in BLU units [2]: 366.1 BLU

SRSKRSKPLPPQLL
The normalized value in BLU units [2]: 884.3 BLU

FLALFSDPARPFLT
The normalized value in BLU units (SPOT analysis, Myo5 SH3) [3]: 451.5 BLU

PEVHHHCPGVPCLV
The normalized value in BLU units (SPOT analysis, Myo5 SH3) [3]: 331.3 BLU

DQLNRLLPNLPEEE
The normalized value in BLU units (SPOT analysis, Myo5 SH3) [1]: 47.5 BLU

NSGEKIYPQEPPIS
The normalized value in BLU units [2]: 111.7 BLU

QPAQLQEPQEPLST
The normalized value in BLU units (SPOT analysis, Myo5 SH3) [3]: 125.9 BLU

IFVTRYLPYFPIMY
The normalized value in BLU units [4]: 156.7 BLU

LASDKGLPMIPAFV
The normalized value in BLU units (SPOT analysis, Myo5 SH3) [1]: 79.9 BLU

GTTNRGPPPLPPRA
The normalized value in BLU units (SPOT analysis, Myo5 SH3) [1]: 39858.8 BLU

NDDKKTEPDKPAFS
The normalized value in BLU units [4]: 140.5 BLU

LIWHKNKPTEPDNK
The normalized value in BLU units (SPOT analysis, Myo5 SH3) [1]: 155.4 BLU

VLLPLRLPEIPPKG
The normalized value in BLU units [2]: 1072.4 BLU

ELAEFTDPSCPVSE
The normalized value in BLU units [2]: 188.9 BLU

QHKPKVKPSKPEAK
The normalized value in BLU units (SPOT analysis, Myo5 SH3) [1]: 956.3 BLU

EKVFRGDPEHPAIS
The normalized value in BLU units [4]: 90.0 BLU

PFIRRYTPLKPITK
The normalized value in BLU units (SPOT analysis, Myo5 SH3) [1]: 649.2 BLU

ENENKKLPPAPTVF
The normalized value in BLU units (SPOT analysis, Myo5 SH3) [1]: 67.7 BLU

AELFLGIPIFPGAS
The normalized value in BLU units (SPOT analysis, Myo5 SH3) [3]: 36.7 BLU

NSTVRRKPHSPNKK
The normalized value in BLU units (SPOT analysis, Myo5 SH3) [1]: 955.5 BLU

INTFKTLPTKPEMQ
The normalized value in BLU units (SPOT analysis, Myo5 SH3) [1]: 167.1 BLU

RLFDLVKPKNPKFS
The normalized value in BLU units [2]: 441.1 BLU

EHLQKERPKPPNKG
The normalized value in BLU units [4]: 363.6 BLU

SPVNLLKPFNPTLP
The normalized value in BLU units (SPOT analysis, Myo5 SH3) [3]: 122.9 BLU

FLHSKKIPEVPQTD
The normalized value in BLU units [4]: 287.9 BLU

RFWTRARPIDPNAY
The normalized value in BLU units (SPOT analysis, Myo5 SH3) [1]: 279.1 BLU

NPIPKSVPLHPKSG
The normalized value in BLU units [4]: 363.8 BLU

SANNYPFPQQPNGM
The normalized value in BLU units [2]: 79.6 BLU

TSGYKYFPQFPQLK
The normalized value in BLU units (SPOT analysis, Myo5 SH3) [1]: 234.6 BLU

VVAVKIIPKKPWNA
The normalized value in BLU units (SPOT analysis, Myo5 SH3) [1]: 114.7 BLU

RIRDKSKPSSPTAT
The normalized value in BLU units (SPOT analysis, Myo5 SH3) [1]: 546.8 BLU

KTKKKTVPVKPLQL
The normalized value in BLU units [2]: 358.9 BLU

TLDEKECPSVPPTV
The normalized value in BLU units [2]: 211.5 BLU

DDIIKDHPHIPNGQ
The normalized value in BLU units [4]: 57.8 BLU

PPPDFNDPTAPLSS
The normalized value in BLU units [2]: 152.8 BLU

PAPPPPPPPPPPP
The normalized value in BLU units (SPOT analysis, Myo5 SH3) [3]: 53285 BLU

YPAKLRIPETPVKK
The normalized value in BLU units [2]: 219.9 BLU

MFELLCHPKVPVGM
The normalized value in BLU units (SPOT analysis, Myo5 SH3) [3]: 267.7 BLU

QLIGFGNPKNPFAL
The normalized value in BLU units (SPOT analysis, Myo5 SH3) [3]: 46.1 BLU

PPPPPPPPPVPA
The normalized value in BLU units (SPOT analysis, Myo5 SH3) [3]: 95729 BLU

LASPFHDPILPRRT
The normalized value in BLU units [2]: 288.3 BLU

ALNNWILPSTPHIQ
The normalized value in BLU units (SPOT analysis, Myo5 SH3) [3]: 169.3 BLU

GEFFHCSPNIPHYA
The normalized value in BLU units [2]: 271.2 BLU

EEQVKEKPNEPEGK
The normalized value in BLU units [2]: 134.2 BLU

EAFKLPKPWSPNSH
The normalized value in BLU units [2]: 141.0 BLU

ERDGRGVPLGPRNH
The normalized value in BLU units [2]: 121.3 BLU

FHDPKFIPNKPYRQ
The normalized value in BLU units [2]: 299.7 BLU

MDMDRNVPLAPNLN
The normalized value in BLU units [4]: 91.4 BLU

LNLSKDAPVPPAPE
The normalized value in BLU units [4]: 161.0 BLU

DPNAYMQPQVPVQM
The normalized value in BLU units (SPOT analysis, Myo5 SH3) [3]: 160.5 BLU

SPVPLGSPRGPLPV
The normalized value in BLU units [2]: 135.1 BLU

QTGSKTVPQAPQAP
The normalized value in BLU units (SPOT analysis, Myo5 SH3) [1]: 62.9 BLU

HLVRKVAPTKPMYC
The normalized value in BLU units (SPOT analysis, Myo5 SH3) [1]: 477.5 BLU

AAMMLGNPMAPAVQ
The normalized value in BLU units [2]: 256.9 BLU

TDLGKDIPFFPSSE
The normalized value in BLU units [4]: 146.5 BLU

NNLKKRPPTAPQRK
The normalized value in BLU units [4]: 418.9 BLU

TILERLTPLVPNNL
The normalized value in BLU units [4]: 249.4 BLU

SFRKLASPSNPNFF
The normalized value in BLU units (SPOT analysis, Myo5 SH3) [3]: 208.8 BLU

VPPNFNAPPNPMAF
The normalized value in BLU units [2]: 1568.9 BLU

PNPLKKAPIPPLAY
The normalized value in BLU units [4]: 137.2 BLU

DRKNRAPPQRPRFN
The normalized value in BLU units (SPOT analysis, Myo5 SH3) [1]: 2434.1 BLU

YFKELPPPSDPSSI
The normalized value in BLU units [2]: 164.8 BLU

VEKRKFTPIEPSLL
The normalized value in BLU units [4]: 171.2 BLU

MAKSFADPRVPQPM
The normalized value in BLU units (SPOT analysis, Myo5 SH3) [3]: 172.2 BLU
